{"source": "paper PMC10382584", "about": "“Macrocyclization of linear molecules by deep learning to facilitate macrocyclic drug candidates discovery” (Nature Communications, 2023);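 further: KINOMEscan kinase panel binding assay, signal normalized between DMSO as 100% and a positive control compound as 0%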", "test_in_all_cases": "biochemical", "parameters_in_all_cases": "DiscoveRx KINOMEscan competition binding, percent of DMSO control signal at 100 nM", "settings_in_all_cases": "read-out: Fig. 4a / Percent Control / Compound 1; percent of DMSO control, competition binding", "key": {"[1]": {"target": "T1, ABL1(T315I)-phosphorylated (Homo sapiens, UniProt P00519, T315I)", "T1 construct": "phosphorylated"}, "[2]": {"target": "T2, ADCK3 (Homo sapiens, UniProt Q8NI60)", "T2 construct": "gene COQ8A"}, "[3]": {"target": "T3, ADCK4 (Homo sapiens, UniProt Q96D53)", "T3 construct": "gene COQ8B"}, "[4]": {"target": "CSNK2A1 (Homo sapiens, UniProt P68400)", "sequence (P68400 whole entry)": "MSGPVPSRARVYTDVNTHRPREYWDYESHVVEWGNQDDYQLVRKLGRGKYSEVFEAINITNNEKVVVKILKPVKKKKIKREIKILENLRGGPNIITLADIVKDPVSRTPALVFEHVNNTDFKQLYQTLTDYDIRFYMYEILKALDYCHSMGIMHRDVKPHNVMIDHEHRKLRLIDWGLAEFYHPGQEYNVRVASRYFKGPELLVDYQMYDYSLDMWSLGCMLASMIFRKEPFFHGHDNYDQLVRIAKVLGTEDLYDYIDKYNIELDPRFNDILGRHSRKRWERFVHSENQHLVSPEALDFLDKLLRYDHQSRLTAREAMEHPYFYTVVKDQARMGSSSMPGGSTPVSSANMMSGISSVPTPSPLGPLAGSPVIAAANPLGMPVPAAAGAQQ"}, "[5]": {"target": "T4, DCAMKL2 (Homo sapiens, UniProt Q8N568)", "T4 construct": "gene DCLK2"}, "[6]": {"target": "DDR1 (Homo sapiens, UniProt Q08345)"}, "[7]": {"target": "EIF2AK1 (Homo sapiens, UniProt Q9BQI3)", "sequence (Q9BQI3 whole entry)": "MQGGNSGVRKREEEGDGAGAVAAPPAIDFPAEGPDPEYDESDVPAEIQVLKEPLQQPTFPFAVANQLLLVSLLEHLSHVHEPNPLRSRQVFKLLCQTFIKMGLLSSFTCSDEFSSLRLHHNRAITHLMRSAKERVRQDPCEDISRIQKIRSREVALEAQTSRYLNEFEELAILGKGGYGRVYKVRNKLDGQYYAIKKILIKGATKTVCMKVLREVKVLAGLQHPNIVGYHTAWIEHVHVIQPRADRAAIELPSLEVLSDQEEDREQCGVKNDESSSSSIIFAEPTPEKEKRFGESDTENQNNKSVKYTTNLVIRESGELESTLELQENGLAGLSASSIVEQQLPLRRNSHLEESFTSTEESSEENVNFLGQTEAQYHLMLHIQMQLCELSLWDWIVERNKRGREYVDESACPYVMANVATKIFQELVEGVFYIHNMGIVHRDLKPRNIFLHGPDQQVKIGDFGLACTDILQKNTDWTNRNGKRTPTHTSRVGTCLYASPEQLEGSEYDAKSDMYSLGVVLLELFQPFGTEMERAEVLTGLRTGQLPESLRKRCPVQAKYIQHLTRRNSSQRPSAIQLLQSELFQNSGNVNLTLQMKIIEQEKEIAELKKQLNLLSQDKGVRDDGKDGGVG"}, "[8]": {"target": "EPHB4 (Homo sapiens, UniProt P54760)", "sequence (P54760 whole entry)": "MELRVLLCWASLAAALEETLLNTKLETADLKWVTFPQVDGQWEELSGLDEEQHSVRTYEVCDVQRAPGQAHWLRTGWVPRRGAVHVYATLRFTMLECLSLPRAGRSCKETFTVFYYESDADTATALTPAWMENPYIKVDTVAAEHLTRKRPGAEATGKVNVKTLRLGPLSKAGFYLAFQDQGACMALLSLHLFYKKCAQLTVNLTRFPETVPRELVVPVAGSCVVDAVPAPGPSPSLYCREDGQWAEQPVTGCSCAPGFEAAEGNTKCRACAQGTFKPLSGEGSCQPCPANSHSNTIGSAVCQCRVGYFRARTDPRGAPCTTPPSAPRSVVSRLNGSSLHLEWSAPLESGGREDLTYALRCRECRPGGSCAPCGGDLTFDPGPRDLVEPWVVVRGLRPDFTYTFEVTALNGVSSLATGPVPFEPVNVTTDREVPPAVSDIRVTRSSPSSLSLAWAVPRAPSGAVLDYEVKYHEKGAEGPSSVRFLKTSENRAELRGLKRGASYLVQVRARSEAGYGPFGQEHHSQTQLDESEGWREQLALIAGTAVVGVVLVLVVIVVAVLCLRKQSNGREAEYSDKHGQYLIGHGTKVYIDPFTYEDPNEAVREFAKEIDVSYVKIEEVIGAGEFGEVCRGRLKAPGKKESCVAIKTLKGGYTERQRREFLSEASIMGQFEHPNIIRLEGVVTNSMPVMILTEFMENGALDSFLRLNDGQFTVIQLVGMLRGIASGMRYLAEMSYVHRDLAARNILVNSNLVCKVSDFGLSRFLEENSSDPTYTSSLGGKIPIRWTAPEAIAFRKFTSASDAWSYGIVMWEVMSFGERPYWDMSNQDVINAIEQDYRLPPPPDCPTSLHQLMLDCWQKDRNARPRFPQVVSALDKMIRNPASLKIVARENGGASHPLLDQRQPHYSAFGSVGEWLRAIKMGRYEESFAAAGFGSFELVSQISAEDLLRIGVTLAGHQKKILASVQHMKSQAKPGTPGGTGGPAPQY"}, "[9]": {"target": "T5, FAK (Homo sapiens, UniProt Q05397)", "T5 construct": "gene PTK2"}, "[10]": {"target": "FLT3(K663Q) (Homo sapiens, UniProt P36888, K663Q)"}, "[11]": {"target": "GRK2 (Homo sapiens, UniProt P25098)", "sequence (P25098 whole entry)": "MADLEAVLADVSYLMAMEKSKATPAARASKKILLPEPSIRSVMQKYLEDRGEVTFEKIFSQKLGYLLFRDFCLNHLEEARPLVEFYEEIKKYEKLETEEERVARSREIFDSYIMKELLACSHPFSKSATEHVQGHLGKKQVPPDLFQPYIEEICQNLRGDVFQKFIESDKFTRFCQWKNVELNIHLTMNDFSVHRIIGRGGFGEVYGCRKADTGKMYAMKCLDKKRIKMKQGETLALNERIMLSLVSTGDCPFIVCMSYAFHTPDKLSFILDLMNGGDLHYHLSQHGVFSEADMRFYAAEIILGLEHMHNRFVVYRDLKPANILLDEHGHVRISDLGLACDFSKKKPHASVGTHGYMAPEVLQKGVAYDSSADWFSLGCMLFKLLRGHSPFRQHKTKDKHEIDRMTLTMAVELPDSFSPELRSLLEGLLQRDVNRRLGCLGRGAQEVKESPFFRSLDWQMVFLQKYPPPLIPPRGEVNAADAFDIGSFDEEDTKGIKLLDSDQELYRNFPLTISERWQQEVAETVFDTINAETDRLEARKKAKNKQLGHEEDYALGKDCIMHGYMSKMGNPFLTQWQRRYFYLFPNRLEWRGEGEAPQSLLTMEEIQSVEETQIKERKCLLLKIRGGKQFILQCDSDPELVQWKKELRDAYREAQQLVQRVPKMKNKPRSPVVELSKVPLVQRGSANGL"}, "[12]": {"target": "T6, IKK-alpha (Homo sapiens, UniProt O15111)", "T6 construct": "gene CHUK"}, "[13]": {"target": "IRAK4 (Homo sapiens, UniProt Q9NWZ3)", "sequence (Q9NWZ3 whole entry)": "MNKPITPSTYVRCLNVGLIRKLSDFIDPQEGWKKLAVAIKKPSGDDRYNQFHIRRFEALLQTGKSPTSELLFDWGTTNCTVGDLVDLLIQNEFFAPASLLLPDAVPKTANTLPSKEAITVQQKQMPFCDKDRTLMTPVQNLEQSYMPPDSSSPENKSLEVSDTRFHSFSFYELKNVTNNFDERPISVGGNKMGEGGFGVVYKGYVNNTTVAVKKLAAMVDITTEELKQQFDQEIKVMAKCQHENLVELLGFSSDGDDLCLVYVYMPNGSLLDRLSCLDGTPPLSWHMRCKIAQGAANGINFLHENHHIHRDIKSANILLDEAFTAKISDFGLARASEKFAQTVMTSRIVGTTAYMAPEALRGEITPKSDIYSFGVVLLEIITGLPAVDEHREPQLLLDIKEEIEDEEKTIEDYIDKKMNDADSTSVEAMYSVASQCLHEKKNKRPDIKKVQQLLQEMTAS"}, "[14]": {"target": "KIT(A829P) (Homo sapiens, UniProt P10721, A829P)"}, "[15]": {"target": "LATS2 (Homo sapiens, UniProt Q9NRM7)", "sequence (Q9NRM7 whole entry)": "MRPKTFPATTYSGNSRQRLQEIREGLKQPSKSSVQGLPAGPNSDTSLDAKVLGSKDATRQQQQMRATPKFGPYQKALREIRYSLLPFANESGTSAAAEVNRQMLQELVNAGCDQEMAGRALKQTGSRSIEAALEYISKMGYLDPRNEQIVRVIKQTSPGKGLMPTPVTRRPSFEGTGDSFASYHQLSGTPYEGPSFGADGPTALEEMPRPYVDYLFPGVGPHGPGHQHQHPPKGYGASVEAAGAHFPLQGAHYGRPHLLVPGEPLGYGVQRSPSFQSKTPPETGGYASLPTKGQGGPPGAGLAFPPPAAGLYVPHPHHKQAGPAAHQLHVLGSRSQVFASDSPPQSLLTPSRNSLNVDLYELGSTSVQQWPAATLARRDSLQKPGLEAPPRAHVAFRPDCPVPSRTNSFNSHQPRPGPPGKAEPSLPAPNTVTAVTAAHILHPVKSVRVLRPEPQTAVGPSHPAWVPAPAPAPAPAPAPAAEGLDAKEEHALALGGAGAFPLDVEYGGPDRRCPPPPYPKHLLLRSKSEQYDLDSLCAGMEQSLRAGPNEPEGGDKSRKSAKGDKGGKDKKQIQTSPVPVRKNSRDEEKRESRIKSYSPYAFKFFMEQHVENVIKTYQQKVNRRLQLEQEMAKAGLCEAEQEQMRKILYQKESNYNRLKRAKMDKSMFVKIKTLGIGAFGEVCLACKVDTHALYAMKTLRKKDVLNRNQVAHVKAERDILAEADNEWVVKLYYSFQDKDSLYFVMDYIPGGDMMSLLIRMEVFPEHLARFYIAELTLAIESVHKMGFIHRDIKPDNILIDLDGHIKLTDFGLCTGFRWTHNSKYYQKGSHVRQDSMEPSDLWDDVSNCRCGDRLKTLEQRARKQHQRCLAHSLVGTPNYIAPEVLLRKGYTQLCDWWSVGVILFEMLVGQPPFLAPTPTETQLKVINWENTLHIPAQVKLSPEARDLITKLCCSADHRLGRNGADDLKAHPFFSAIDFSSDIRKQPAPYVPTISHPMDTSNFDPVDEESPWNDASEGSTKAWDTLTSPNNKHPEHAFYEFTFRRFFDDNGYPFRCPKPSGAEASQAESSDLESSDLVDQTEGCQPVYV"}, "[16]": {"target": "T7, LZK (Homo sapiens, UniProt O43283)", "T7 construct": "gene MAP3K13"}, "[17]": {"target": "MKNK1 (Homo sapiens, UniProt Q9BUB5)", "sequence (Q9BUB5 whole entry)": "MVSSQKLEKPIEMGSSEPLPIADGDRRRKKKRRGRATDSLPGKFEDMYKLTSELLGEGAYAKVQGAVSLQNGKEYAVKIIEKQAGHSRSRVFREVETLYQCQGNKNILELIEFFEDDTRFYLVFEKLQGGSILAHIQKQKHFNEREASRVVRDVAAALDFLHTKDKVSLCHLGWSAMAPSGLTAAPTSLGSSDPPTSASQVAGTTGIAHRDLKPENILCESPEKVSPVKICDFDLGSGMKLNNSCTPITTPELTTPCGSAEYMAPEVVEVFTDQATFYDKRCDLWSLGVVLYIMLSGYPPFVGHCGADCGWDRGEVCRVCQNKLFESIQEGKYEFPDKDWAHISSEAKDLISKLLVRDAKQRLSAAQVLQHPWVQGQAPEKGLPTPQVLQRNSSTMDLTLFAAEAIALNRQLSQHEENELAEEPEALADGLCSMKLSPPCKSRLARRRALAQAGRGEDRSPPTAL"}, "[18]": {"target": "T8, MLK1 (Homo sapiens, UniProt P80192)", "T8 construct": "gene MAP3K9"}, "[19]": {"target": "T9, NDR1 (Homo sapiens, UniProt Q15208)", "T9 construct": "gene STK38"}, "[20]": {"target": "NEK4 (Homo sapiens, UniProt P51957)"}, "[21]": {"target": "T10, NIK (Homo sapiens, UniProt Q99558)", "T10 construct": "gene MAP3K14"}, "[22]": {"target": "PKN1 (Homo sapiens, UniProt Q16512)"}, "[23]": {"target": "PRKCQ (Homo sapiens, UniProt Q04759)"}, "[24]": {"target": "T11, RSK4(Kin.Dom.1-N-terminal) (Homo sapiens, UniProt Q9UK32)", "T11 construct": "gene RPS6KA6; Kin.Dom.1-N-terminal"}, "[25]": {"target": "TLK2 (Homo sapiens, UniProt Q86UE8)"}}}
{"compound": "Cc1cnc2nc1Nc1cccc(c1)COCc1cc(ccc1OCCN1CCCC1)N2", "note": "[Compound 1]", "values": [{"measurement": "remaining binding at 0.1 µM", "setting": "[1]", "result": 49, "unit": "%"}, {"measurement": "remaining binding at 0.1 µM", "setting": "[2]", "result": 96, "unit": "%"}, {"measurement": "remaining binding at 0.1 µM", "setting": "[3]", "result": 61, "unit": "%"}, {"measurement": "remaining binding at 0.1 µM", "setting": "[4]", "result": 57, "unit": "%"}, {"measurement": "remaining binding at 0.1 µM", "setting": "[5]", "result": 96, "unit": "%"}, {"measurement": "remaining binding at 0.1 µM", "setting": "[6]", "result": 93, "unit": "%"}, {"measurement": "remaining binding at 0.1 µM", "setting": "[7]", "result": 76, "unit": "%"}, {"measurement": "remaining binding at 0.1 µM", "setting": "[8]", "result": 100, "unit": "%"}, {"measurement": "remaining binding at 0.1 µM", "setting": "[9]", "result": 95, "unit": "%"}, {"measurement": "remaining binding at 0.1 µM", "setting": "[10]", "result": 36, "unit": "%"}, {"measurement": "remaining binding at 0.1 µM", "setting": "[11]", "result": 90, "unit": "%"}, {"measurement": "remaining binding at 0.1 µM", "setting": "[12]", "result": 96, "unit": "%"}, {"measurement": "remaining binding at 0.1 µM", "setting": "[13]", "result": 72, "unit": "%"}, {"measurement": "remaining binding at 0.1 µM", "setting": "[14]", "result": 45, "unit": "%"}, {"measurement": "remaining binding at 0.1 µM", "setting": "[15]", "result": 100, "unit": "%"}, {"measurement": "remaining binding at 0.1 µM", "setting": "[16]", "result": 63, "unit": "%"}, {"measurement": "remaining binding at 0.1 µM", "setting": "[17]", "result": 93, "unit": "%"}, {"measurement": "remaining binding at 0.1 µM", "setting": "[18]", "result": 100, "unit": "%"}, {"measurement": "remaining binding at 0.1 µM", "setting": "[19]", "result": 87, "unit": "%"}, {"measurement": "remaining binding at 0.1 µM", "setting": "[20]", "result": 79, "unit": "%"}, {"measurement": "remaining binding at 0.1 µM", "setting": "[21]", "result": 74, "unit": "%"}, {"measurement": "remaining binding at 0.1 µM", "setting": "[22]", "result": 93, "unit": "%"}, {"measurement": "remaining binding at 0.1 µM", "setting": "[23]", "result": 100, "unit": "%"}, {"measurement": "remaining binding at 0.1 µM", "setting": "[24]", "result": 64, "unit": "%"}, {"measurement": "remaining binding at 0.1 µM", "setting": "[25]", "result": 100, "unit": "%"}]}
